# Source: US12448389B2, “BRM targeting compounds and associated methods of use” (Prelude Therapeutics Incorporated, priority 2020, dated 2025)
# Columns and labels:
# [1] = biological target: T1, SMARCA2 (Homo sapiens, UniProt P51531); assay: SMARCA2 protein degradation in NCIH520 cells by In Cell Western (ICW); type: cell-based; conditions: highest concentration 1 μM; for DC50: H520 cells, overnight incubation (maximum 18 hours), read-out: DC50 (SM2_H520): SMARCA2 degradation potency; for Dmax: NCI-H520, overnight incubation (maximum 18 hours), read-out: Dmax % (SM2_H520): maximum SMARCA2 degradation within the concentrations tested
# T1 construct: endogenous in cells; host or cells: NCI-H520 (given as NCIH520 / NCIH1520 / H520)
# T1 sequence (P51531 whole entry): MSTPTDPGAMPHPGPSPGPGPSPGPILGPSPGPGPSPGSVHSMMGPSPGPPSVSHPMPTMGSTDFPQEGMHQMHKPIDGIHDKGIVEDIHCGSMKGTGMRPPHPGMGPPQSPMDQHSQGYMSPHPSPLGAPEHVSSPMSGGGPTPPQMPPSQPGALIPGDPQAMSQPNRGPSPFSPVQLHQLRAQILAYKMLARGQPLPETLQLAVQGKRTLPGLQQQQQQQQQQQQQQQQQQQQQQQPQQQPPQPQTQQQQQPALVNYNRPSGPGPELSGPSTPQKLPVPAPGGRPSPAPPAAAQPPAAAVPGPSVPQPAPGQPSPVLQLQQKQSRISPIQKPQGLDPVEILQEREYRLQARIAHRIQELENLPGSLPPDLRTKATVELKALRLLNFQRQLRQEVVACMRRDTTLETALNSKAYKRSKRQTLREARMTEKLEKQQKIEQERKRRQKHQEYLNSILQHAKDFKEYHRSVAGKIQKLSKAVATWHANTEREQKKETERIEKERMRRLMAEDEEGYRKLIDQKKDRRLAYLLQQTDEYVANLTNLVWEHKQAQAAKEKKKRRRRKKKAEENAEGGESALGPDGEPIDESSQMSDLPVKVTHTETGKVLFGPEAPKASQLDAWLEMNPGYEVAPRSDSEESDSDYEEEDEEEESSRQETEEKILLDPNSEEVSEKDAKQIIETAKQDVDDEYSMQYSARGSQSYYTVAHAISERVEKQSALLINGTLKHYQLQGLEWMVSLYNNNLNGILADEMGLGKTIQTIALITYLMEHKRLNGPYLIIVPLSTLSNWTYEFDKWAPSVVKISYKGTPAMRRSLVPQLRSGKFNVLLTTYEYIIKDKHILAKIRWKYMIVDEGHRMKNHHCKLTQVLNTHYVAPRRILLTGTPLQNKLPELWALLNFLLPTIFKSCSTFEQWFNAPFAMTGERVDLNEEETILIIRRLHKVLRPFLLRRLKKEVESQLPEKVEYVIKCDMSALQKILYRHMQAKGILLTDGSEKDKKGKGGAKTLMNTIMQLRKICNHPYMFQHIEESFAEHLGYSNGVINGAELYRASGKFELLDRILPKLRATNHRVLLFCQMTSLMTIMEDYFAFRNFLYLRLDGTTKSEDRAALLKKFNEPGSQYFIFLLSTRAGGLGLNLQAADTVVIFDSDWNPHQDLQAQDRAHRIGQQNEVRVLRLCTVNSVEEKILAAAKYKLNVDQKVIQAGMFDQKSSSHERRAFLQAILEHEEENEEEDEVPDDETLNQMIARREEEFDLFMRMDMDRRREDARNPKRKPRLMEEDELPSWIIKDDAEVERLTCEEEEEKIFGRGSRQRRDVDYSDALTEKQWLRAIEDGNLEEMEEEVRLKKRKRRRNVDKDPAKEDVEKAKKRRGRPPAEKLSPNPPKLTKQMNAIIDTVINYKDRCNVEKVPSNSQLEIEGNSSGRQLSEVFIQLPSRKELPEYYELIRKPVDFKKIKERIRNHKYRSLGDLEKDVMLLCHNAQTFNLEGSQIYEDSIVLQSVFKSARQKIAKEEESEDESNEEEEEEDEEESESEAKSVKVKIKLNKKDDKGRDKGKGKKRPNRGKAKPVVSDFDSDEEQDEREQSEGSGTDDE
# Experimental: (§1) Compounds were dissolved in DMSO to make 10 mM stock and 3-fold series dilutions were further conducted keeping the highest concentration 10 μM. NCIH11693 and NCIH1520 cells were maintained in PRMI 1640 medium (Corning Cellgro, Catalog #: 10-040-CV) supplemented with 10% v/v FBS (GE Healthcare, Catalog #: SH30910.03) by splitting 1:3 twice a week.
# (§2) SMACRA2 and SMARCA4 Protein Degradation DC50 Values in NCIH1693 and NCIH520 Cells by in Cell Western (ICW) Analysis.
# (§3) Cells were trypsinized and 30 thousand cells/well were seeded into 384-well plates and were allowed to grow for 1-2 hours at 37° C. Eight-point, 3-fold serial dilutions of compounds from 0.5 mM stocks were added to the cells (using digital Dispenser D300-Tecan, keeping highest concentration 1 μM and normalizing with DMSO at the highest dispensed volume). Plates were incubated at 37° C. for overnight (maximum 18 hours). Cells incubated with DMSO was used as a vehicle control.
# (§4) To perform In Cell Western, medium was removed from all the wells leaving cells attached to the surface. After removing the medium, cells were fixed within the plates with 40 μL of 4% formaldehyde by incubating at room temperature for 30 minutes, and then permeabilized with wash buffer (1×PBS with 0.1% Triton X-100) by washing the plate 5 times with 50 μL/well. Before labeling with primary antibodies, cells were blocked with 30 μL/well of blocking buffer (Licor Odyssey blocking buffer PBS #927-40000) for 30 minutes at room temperature. To measure SMARCA2 or SMARCA4 proteins, cells were labeled with 20 μL/well of anti SMARCA2 or SMACRA4 antibodies (Cell Signaling BRM #11966S 1:800, Cell Signaling BRG #49360S 1:800) diluted in Li-Cor Odyssey blocking buffer-PBS #927-40000, followed by overnight incubation at 4° C.
# (§5) The next day, plates were washed 5×5 minutes with 50 μL/well of washing buffer to remove all the excess primary antibody and then 20 μL from a mixture of secondary antibody and fluorescent DNA specific dye (Goat anti rabbit 1:500 IRDye-800CW #92632211, and DRAQ5™ 1:2000-#ab108410) was added to each well. Plates were incubated for 1 hour at room temperature with gentle rocking. Cells were washed 5 times with 50 μL/well wash buffer, followed by one last wash with DI water, followed by 10 mins drying at 37° C. oven before scanning. Plates were scanned using Li-Cor Odyssey CLx imaging system to acquire integrated intensities at 700 nm and 800 nm. SMARCA signals were normalized to total cell count and then these normalized values were used to calculate the percent degradation relative to DMSO control and maximum inhibition. DC50s were calculated by using the GraphPad Prism4 program based on sigmoidal dose response equation ([Inhibitor] vs. normalized response-Variable slope).
# (§6) In Table 36, the DC50/Dmax% (SM2_H520) refers to SMARCA2 degradation potency/maximum SMARCA2 degradation within the concentrations in H520 cells and DC50/Dmax% (SM4_H520) refers to SMARCA4 degradation potency/maximum SMARCA4 degradation within the concentrations tested in H520 cells.
# [2] = biological target: T2, SMARCA4 (Homo sapiens, UniProt P51532); assay: SMARCA4 protein degradation in NCIH520 cells by In Cell Western (ICW); type: cell-based; conditions: highest concentration 1 μM; for DC50: H520 cells, overnight incubation (maximum 18 hours), read-out: DC50 (SM4_H520): SMARCA4 degradation potency; for Dmax: NCI-H520, overnight incubation (maximum 18 hours), read-out: Dmax % (SM4_H520): maximum SMARCA4 degradation within the concentrations tested
# T2 construct: endogenous in cells; host or cells: NCI-H520 (given as NCIH520 / NCIH1520 / H520)
# T2 sequence (P51532 whole entry): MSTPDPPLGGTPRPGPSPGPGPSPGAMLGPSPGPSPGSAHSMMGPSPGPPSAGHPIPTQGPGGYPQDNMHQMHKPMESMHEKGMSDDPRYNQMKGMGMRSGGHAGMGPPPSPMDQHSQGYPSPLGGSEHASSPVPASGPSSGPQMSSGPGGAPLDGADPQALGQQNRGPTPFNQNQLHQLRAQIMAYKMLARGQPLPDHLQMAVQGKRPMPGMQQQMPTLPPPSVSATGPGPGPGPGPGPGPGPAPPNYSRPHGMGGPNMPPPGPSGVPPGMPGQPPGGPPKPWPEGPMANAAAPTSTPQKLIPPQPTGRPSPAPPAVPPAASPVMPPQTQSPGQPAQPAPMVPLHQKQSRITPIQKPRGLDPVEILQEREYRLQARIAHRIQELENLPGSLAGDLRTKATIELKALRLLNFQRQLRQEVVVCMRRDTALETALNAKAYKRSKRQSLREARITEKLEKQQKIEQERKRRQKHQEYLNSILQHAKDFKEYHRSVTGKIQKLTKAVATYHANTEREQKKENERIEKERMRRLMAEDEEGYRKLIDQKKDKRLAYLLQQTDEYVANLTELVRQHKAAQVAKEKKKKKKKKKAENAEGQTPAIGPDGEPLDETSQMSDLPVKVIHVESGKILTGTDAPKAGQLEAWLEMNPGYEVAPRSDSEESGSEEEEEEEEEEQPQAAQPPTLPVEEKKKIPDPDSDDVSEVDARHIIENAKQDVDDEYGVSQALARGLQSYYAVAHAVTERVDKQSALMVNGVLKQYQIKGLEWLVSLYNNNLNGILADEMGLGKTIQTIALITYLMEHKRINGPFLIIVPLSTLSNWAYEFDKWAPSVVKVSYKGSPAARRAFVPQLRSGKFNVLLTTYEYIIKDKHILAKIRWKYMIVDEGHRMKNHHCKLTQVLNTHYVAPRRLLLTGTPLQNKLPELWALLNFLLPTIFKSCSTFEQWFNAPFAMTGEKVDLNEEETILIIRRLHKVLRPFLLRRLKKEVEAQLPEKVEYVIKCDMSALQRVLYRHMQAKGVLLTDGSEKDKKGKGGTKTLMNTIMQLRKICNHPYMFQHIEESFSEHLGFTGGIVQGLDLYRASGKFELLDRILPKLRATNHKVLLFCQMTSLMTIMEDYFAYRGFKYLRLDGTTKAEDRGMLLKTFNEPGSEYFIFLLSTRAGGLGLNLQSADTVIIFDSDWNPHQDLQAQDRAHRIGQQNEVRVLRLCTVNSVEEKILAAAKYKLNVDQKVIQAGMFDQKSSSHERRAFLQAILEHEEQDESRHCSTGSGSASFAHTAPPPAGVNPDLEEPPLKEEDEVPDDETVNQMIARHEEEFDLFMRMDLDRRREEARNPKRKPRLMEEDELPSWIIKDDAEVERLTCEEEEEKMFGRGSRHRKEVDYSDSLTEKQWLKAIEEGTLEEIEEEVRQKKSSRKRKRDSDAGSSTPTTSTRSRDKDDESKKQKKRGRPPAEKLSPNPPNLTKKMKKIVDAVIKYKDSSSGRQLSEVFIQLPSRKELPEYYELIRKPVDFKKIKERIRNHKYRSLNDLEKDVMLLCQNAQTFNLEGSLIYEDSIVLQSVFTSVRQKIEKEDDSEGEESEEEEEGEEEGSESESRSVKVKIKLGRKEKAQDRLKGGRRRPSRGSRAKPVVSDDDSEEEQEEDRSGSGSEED
# Experimental: as §1, §2, §3, §4, §5, §6
smiles,measurement,setting,value
"O=C1CCC(N2C(=O)c3ccc(N4CCC(N5CCC(N6CCN7c8cc(-c9ccccc9O)nnc8NC[C@H]7C6)CC5)CC4)cc3C2=O)C(=O)N1 (stereo partly drawn) [Example 14, 2-(2,6-dioxopiperidin-3-yl)-5-(4-((S)-2-(2-hydroxyphenyl)-5,6,6a,7,9,10-hexahydro-8H-pyrazino[1′,2′:4,5]pyrazino[2,3-c]pyridazin-8-yl)-[1,4′-bipiperidin]-1′-yl) isoindoline-1,3-dione]",DC50,[1],< 0.1 µM
same,Dmax,[1],> 75%
same,DC50,[2],< 0.1 µM
same,Dmax,[2],> 75%
"O=C1CCC(N2Cc3cc(CN4CCC(c5cnc(N6CCN7c8cc(-c9ccccc9O)nnc8NC[C@H]7C6)nc5)CC4)ccc3C2=O)C(=O)N1 (stereo partly drawn) [Example 10, 3-(5-((4-(2-((S)-2-(2-hydroxyphenyl)-5,6,6a,7,9,10-hexahydro-8H-pyrazino[1′,2′:4,5]pyrazino[2,3-c]pyridazin-8-yl)pyrimidin-5-yl)piperidin-1-yl)methyl)-1-oxoisoindolin-2-yl)piperidine-2,6-dione]",DC50,[1],< 0.1 µM
same,Dmax,[1],> 75%
same,DC50,[2],< 0.1 µM
same,Dmax,[2],50 to 75%
"O=C1CCC(N2Cc3cc(CCN4CCC(c5cnc(N6CCN7c8cc(-c9ccccc9O)nnc8NC[C@H]7C6)nc5)CC4)ccc3C2=O)C(=O)N1 (stereo partly drawn) [Example 1, 3-(5-(2-(4-(2-((S)-2-(2-hydroxyphenyl)-5,6,6a,7,9,10-hexahydro-8H-pyrazino [1′,2′:4,5]pyrazino[2,3-c]pyridazin-8-yl)pyrimidin-5-yl)piperidin-1-yl)ethyl)-1-oxoiso-indolin-2-yl)piperidine-2,6-dione]",DC50,[1],< 0.1 µM
same,Dmax,[1],> 75%
same,DC50,[2],< 0.1 µM
same,Dmax,[2],> 75%
"O=C1CCC(n2c3ccc(CCCN4CCC(N5CCC(N6CCN7c8cc(-c9ccccc9O)nnc8NC[C@H]7C6)CC5)CC4)cc3c3cccnc32)C(=O)N1 (stereo partly drawn) [Example 20, 3-(6-(3-(4-((S)-2-(2-hydroxyphenyl)-5,6,6a,7,9,10-hexahydro-8H-pyrazino [1′,2′:4,5]pyrazino[2,3-c]pyridazin-8-yl)-[1,4′-bipiperidin]-1′-yl)propyl)-9H-pyrido[2,3-b]indol-9-yl)piperidine-2,6-dione]",DC50,[1],< 0.1 µM
same,Dmax,[1],> 75%
same,DC50,[2],< 0.1 µM
same,Dmax,[2],> 75%
"O=C1CCC(N2C(=O)c3ccc(N4CCN(CCCN5CCC(N6CCN7c8cc(-c9ccccc9O)nnc8NC[C@H]7C6)CC5)CC4)cc3C2=O)C(=O)N1 (stereo partly drawn) [Example 11, 2-(2,6-Dioxopiperidin-3-yl)-5-(4-(3-(4-((S)-2-(2-hydroxyphenyl)-5,6,6a,7,9,10-hexahydro-8H-pyrazino[1′,2′:4,5]1pyrazino[2,3-c]pyridazin-8-yl)piperidin-1-yl)propyl)piperazin-1-yl) isoindoline-1,3-dione]",DC50,[1],< 0.1 µM
same,Dmax,[1],> 75%
same,DC50,[2],< 0.1 µM
same,Dmax,[2],> 75%
"O=C1CCC(N2C(=O)c3ccc(N4CCN(CCN5CCC(N6CCN7c8cc(-c9ccccc9O)nnc8NC[C@H]7C6)C5)CC4)cc3C2=O)C(=O)N1 (stereo partly drawn) [Example 12, 2-(2,6-Dioxopiperidin-3-yl)-5-(4-(2-(3-((S)-2-(2-hydroxyphenyl)-5,6,6a,7,9,10-hexahydro-8H-pyrazino[1′,2′:4,5]pyrazino[2,3-c]pyridazin-8-yl)pyrrolidin-1-yl)ethyl)piperazin-1-yl) isoindoline-1,3-dione]",DC50,[1],< 0.1 µM
same,Dmax,[1],> 75%
same,DC50,[2],< 0.1 µM
same,Dmax,[2],50 to 75%
"O=C1CCC(N2Cc3cc(CCCN4CCC(c5cnc(N6CCN7c8cc(-c9ccccc9O)nnc8NC[C@@H]7C6)nc5)CC4)ccc3C2=O)C(=O)N1 (stereo partly drawn) [Example 2, 3-(5-(3-(4-(2-((R)-2-(2-hydroxyphenyl)-5,6,6a,7,9,10-hexahydro-8H-pyrazino[1′,2′:4,5]pyrazino[2,3-c]pyridazin-8-yl)pyrimidin-5-yl)piperidin-1-yl)propyl)-1-oxoisoindolin-2-yl)piperidine-2,6-dione]",DC50,[1],< 0.1 µM
same,Dmax,[1],> 75%
same,DC50,[2],< 0.1 µM
same,Dmax,[2],> 75%
"O=C1CCC(N2Cc3cc(CCN4CCC(CCc5cnc(N6CCN7c8cc(-c9ccccc9O)nnc8NC[C@@H]7C6)nc5)CC4)ccc3C2=O)C(=O)N1 (stereo partly drawn) [Example 5, 3-(5-(2-(4-(2-(2-((R)-2-(2-hydroxyphenyl)-5,6,6a,7,9,10-hexahydro-8H-pyrazino[1′,2′:4,5]pyrazino[2,3-c]pyridazin-8-yl)pyrimidin-5-yl)ethyl)piperidin-1-yl)ethyl)-1-oxoisoindolin-2-yl)piperidine-2,6-dione]",DC50,[1],< 0.1 µM
same,Dmax,[1],> 75%
same,DC50,[2],< 0.1 µM
same,Dmax,[2],> 75%
"O=C1CCC(N2Cc3cc(CCN4CCC(OCCN5CCC(N6CCN7c8cc(-c9ccccc9O)nnc8NC[C@H]7C6)CC5)CC4)ccc3C2=O)C(=O)N1 (stereo partly drawn) [Example 8, 3-(5-(2-(4-(2-(4-((S)-2-(2-hydroxyphenyl)-5,6,6a,7,9,10-hexahydro-8H-pyrazino[1′,2′:4,5]pyrazino[2,3-c]pyridazin-8-yl)piperidin-1-yl)ethoxy)piperidin-1-yl)ethyl)-1-oxoisoindolin-2-yl)piperidine-2,6-dione]",DC50,[1],< 0.1 µM
same,Dmax,[1],> 75%
same,DC50,[2],< 0.1 µM
same,Dmax,[2],> 75%
"O=C1CCC(N2Cc3ccc(N4CCN(CCN5CCC(N6CCN7c8cc(-c9ccccc9O)nnc8NC[C@H]7C6)CC5)CC4)cc3C2=O)C(=O)N1 (stereo partly drawn) [Example 17, 3-(6-(4-(2-(4-((S)-2-(2-hydroxyphenyl)-5,6,6a,7,9,10-hexahydro-8H-pyrazino [1′,2′:4,5]pyrazino[2,3-c]pyridazin-8-yl)piperidin-1-yl)ethyl)piperazin-1-yl)-1-oxoisoindolin-2-yl)piperidine-2,6-dione]",DC50,[1],< 0.1 µM
same,Dmax,[1],> 75%
same,DC50,[2],< 0.1 µM
same,Dmax,[2],> 75%
"O=C1CCC(n2c3ccc(CCCN4CCC(N5CCN6c7cc(-c8ccccc8O)nnc7NC[C@H]6C5)CC4)cc3c3cccnc32)C(=O)N1 (stereo partly drawn) [Example 19, 3-(6-(3-(4-((S)-2-(2-hydroxyphenyl)-5,6,6a,7,9,10-hexahydro-8H-pyrazino [1′,2′:4,5]pyrazino[2,3-c]pyridazin-8-yl)piperidin-1-yl)propyl)-9H-pyrido[2,3-b]indol-9-yl) piperidine-2,6-dione]",DC50,[1],< 0.1 µM
same,Dmax,[1],> 75%
same,DC50,[2],< 0.1 µM
same,Dmax,[2],> 75%
"O=C1CCC(n2c3ccc(CCCN4CCC(c5cnc(N6CCN7c8cc(-c9ccccc9O)nnc8NC[C@@H]7C6)nc5)CC4)cc3c3cccnc32)C(=O)N1 (stereo partly drawn) [Example 18, 3-(6-(3-(4-(2-((R)-2-(2-hydroxyphenyl)-5,6,6a,7,9,10-hexahydro-8H-pyrazino [1′,2′:4,5]pyrazino[2,3-c]pyridazin-8-yl)pyrimidin-5-yl)piperidin-1-yl)propyl)-9H-pyrido [2,3-b]indol-9-yl)piperidine-2,6-dione]",DC50,[1],< 0.1 µM
same,Dmax,[1],> 75%
same,DC50,[2],< 0.1 µM
same,Dmax,[2],> 75%
"O=C1CCC(N2Cc3cc(CN4CCC(OCCN5CCC(N6CCN7c8cc(-c9ccccc9O)nnc8NC[C@H]7C6)CC5)CC4)ccc3C2=O)C(=O)N1 (stereo partly drawn) [Example 9, 3-(5-((4-(2-(4-((S)-2-(2-hydroxyphenyl)-5,6,6a,7,9,10-hexahydro-8H-pyrazino[1′,2′:4,5]pyrazino[2,3-c]pyridazin-8-yl)piperidin-1-yl)ethoxy)piperidin-1-yl)methyl)-1-oxoisoindolin-2-yl)piperidine-2,6-dione]",DC50,[1],< 0.1 µM
same,Dmax,[1],> 75%
same,DC50,[2],< 0.1 µM
same,Dmax,[2],50 to 75%
